Literature values in US12582625B2, “Methods for treating neuroblastoma” (priority 2015, dated 2026).

Assays:
[1] = in vivo; cited from earlier work
[2] = human, in vivo; cited from earlier work
[3] = cited from earlier work
[4] = system: tumors harboring Ki-ras mutations; conditions: AOM-treated rats, reduced from 90% (Singh et al., 1994); cited from earlier work

Cc1ccc(-c2cc(C(F)(F)F)nn2-c2ccc(S(N)(=O)=O)cc2)cc1 [celecoxib, 4-[5-(4-Methylphenyl)-3-(trifluoromethyl)pyrazol-1-yl]benzenesulfonamide]
increase in rates of heart and blood vessel disease [1]: 30% | risk of gastrointestinal side effects [1]: greater than 80%

CC1=C(CC(=O)O)c2cc(F)ccc2/C1=C\c1ccc([S+](C)[O-])cc1 (stereo not shown) [sulindac, (Z)-5-fluoro-2-methyl-1-((4-(methylsulfinyl)phenyl)methylene)-1H-chemical indene-3-acetic acid]
patients with mild gastrointestinal effects [2]: ~20% | patients with skin rash and pruritus [2]: 5% | drug absorbed ([3]; after oral administration): about 90% | time to peak plasma levels ([3]; fasting patients): about 2 hours

CN1C(C(=O)Nc2ccccn2)=C(O)c2ccccc2S1(=O)=O [piroxicam, 4 hydroxy-2-methyl-N-2-pyridyl-2H-1,2-benzothiazine-3-carboxamide 1,1-dioxide]
tumors harboring Ki-ras mutations [4]: 25%
